Where a name gives a salt, the structure may show the parent alone.
Legend:
humans = conditions: cited from earlier work

Row | SMILES | % Eclosion (nematode eggs) | amount that can be fatal (humans)
1 | CNC(=O)Oc1cccc2c1OC(C)(C)C2 [Furadan, 2,3-dihydro-2,2-dimethyl-7-benzofuranyl methylcarbamate] | 0.05% | 1 mL
2 | CCOC=O [ethyl formate] | 0.05% | 
